Measured values from patent publication US9303069B2, “Peptides for treating cancer” (University of Mississippi Medical Center, priority 2014, dated 2016).
Ends that are not written are not given here.

What was measured:
[1] = tested on: HOSE and HOSE/IRIS cells; test: Survival of HOSE versus HOSE/IRIS cells; format: cell-based, human; conditions: pre-treatment with 5 μM of IRIS peptide
Description: To test that, HOSE or HOSE/IRIS cells were incubated for 24 hours with 10 μM of ErbB2 (CP-724714), EGFR (Erlotinib), TrkB (K252a), JNK (SP600125), p38 (SB203580), ERK (PD98059) and PI3′K/AKT (LY294002) inhibitors. […] Taken together, BRCA1-IRIS overexpression activates AKT and ERK, thereby inactivating FOXO3a and promoting Cyclin D1, survivin, Bcl-2 and NF-κB expression and suppressing p27 expression (FIG. 15).
HOSE cells overexpressing IRIS show a higher degree of resistance to cisplatin than HOSE cells (compare blue to black line in FIG. 30).
(§1) Cell viability measurement. Cell viability under different experimental conditions was determined using the MTS assay […]. Briefly, SKOV3, OVACAR3, HOSE and HOSE/IRIS cells (2.5×10^4 cells per well) were seeded in 96 well plates and incubated overnight at 37° C. in 10% humidified CO2 atmosphere in varying concentrations of IRIS peptide, or inhibitors of ErbB2 (CP-724714), EGFR (Erlotinib), TrkB (K252a), JNK (SP600125), p38 (SB203580), ERK (PD98059) and PI3′K/AKT (LY294002) inhibitors for 24 hours at 37° C. Cell Titer 96® Aqueous (Promega, Madison, Wis., USA) was used to measure viability following manufactures instructions. Cell viability (%) was expressed as a ratio to control cells×100. Growth inhibition was also determined by manually counting cells in five different microscopic fields. Change in cell numbers (fold) was expressed as a ratio to control cells×100. All experiments were done in at least triplicates, three different times. * is p≦0.05, ** is p≦0.001 and *** is p≦0.0001.

[2] = tested on: MDA-MB-468 cells; conditions: 48 h
Description: (§2) All cell lines were exposed to increasing concentrations of paclitaxel and BRCA1-IRIS expression, and cells' viability was then measured.
(§3) Stable clones were then exposed to 0, 10 or 20 μM of EGFR (Erlotinib), ErbB2 (CP-724714), PI3′K/AKT (LY294002), p38 (SB203580), ERK (PD98059) or JNK (SP600125) inhibitors for 24 hours.
(§4) First, to assess the effect of this IRIS peptide, equal numbers of HME, HME/IRIS, MDA-MB-231, MDA-MB-468 and BT549 cells were exposed to increasing concentrations of scrambled or IRIS peptide for 48 hours.

[3] = tested on: HME, HME/IRIS, MDA-MB-231, MDA-MB-468 and BT549 cells; test: Survival of breast cell lines with IRIS peptide, paclitaxel or both; format: cell-based, human; conditions: all cell lines; IRIS peptide alone, 0.5 μM (HME) or 5 μM (others), 24 hours
Description: To investigate whether inactivating BRCA1-IRIS could sensitize TNBC to paclitaxel-induced cell death, HME cells were exposed to 0.5 μM, while HME/IRIS, MDA-MB-231, MDA-MB-468 and BT549 cells were exposed to 5 μM of IRIS peptide alone or with 5, 10 or 20 μM of paclitaxel for 24 hours. […] Again, IRIS peptide alone at these concentrations led to 50% reduction in survival of all cell lines. […] Indeed, in the presence of IRIS peptide >60%, >70% and >90% reduction in the survival of all cell lines in the presence of 5, 10 and 20 μM of paclitaxel, respectively (FIG. 84).
Cell viability measurement. Cell viability under different experimental conditions was determined using the MTS assay. Briefly, cells (2.5×10^4 cells per well) were seeded in 96-well plates and incubated overnight at 37° C. in 10% humidified CO2 atmosphere. The next day they were incubated with varying concentration of peptide, or inhibitors for 24 hours at 37° C. Cell viability was determined using cell Titer 96® Aqueous (Promega, Madison, Wis., USA) following manufacturer's instructions. Cell viability (%) was expressed as a ratio of treated cells to control cells×100. Growth inhibition was also determined by manually counting cells in five different microscopic fields. Change in cell numbers (fold) was expressed as a ratio of the means of these recording of treated cells compared to control cells×100. Each experiment was done in triplicate, repeated three separate times.

[4] = tested on: HME/IRIS cells; conditions: 48 h
Description: as §2
Cell viability measurement. Cell viability under different experimental conditions was determined using the MTS assay. Briefly, cells (2.5×10^4 cells per well) were seeded in 96-well plates and incubated overnight at 37° C. in 10% humidified CO2 atmosphere. The next day they were incubated with varying concentration of peptide, or inhibitors for 24 hours at 37° C. Cell viability was determined using cell Titer 96® Aqueous (Promega, Madison, Wis., USA) following manufacturer's instructions. Cell viability (%) was expressed as a ratio of treated cells to control cells×100. […] Each experiment was done in triplicate, repeated three separate times.

[5] = tested on: MDA-MB-231 cells; conditions: 48 h
Description: as §2, §3, §4

[6] = tested on: SKOV3 cells; format: cell-based, human; conditions: 48 h
Description: Thus, a peptide (hereafter IRIS peptide) composed of a cell/nucleus penetrating signal (FIG. 26) fused to BRCA1-IRIS intron 11 (FIG. 26) was synthesized. Equal numbers of HOSE, HOSE/IRIS, SKOV3, OVCAR3, OVCAR420 and OV-90 cells were grown in the presence of increasing concentrations of IRIS peptide for 48 hours.
To investigate the contribution of ErbB2 and TrkB to BRCA1-IRIS-induced cisplatin resistance, equal numbers of SKOV3 cells were either depleted from BRCA1-IRIS, ErbB2 or TrkB using specific siRNAs for 48 hours before they were (i) exposed to increasing concentrations of cisplatin for another 24 hours or (ii) exposed to IRIS peptide, ErbB2 inhibitor (CP-724714), TrkB inhibitor (K252a) or both for 24 hours, before they were exposed to increasing concentrations of cisplatin for another 24 hours.
as §1
Transfections of siRNA. siRNAs for human ErbB2 and TrkB were purchased from Ambion and Santa Cruz Biotechnology, USA. Custom synthesized siRNA against BRCA1 IRIS was used. siRNA against luciferase gene was used as the negative control. Sub-confluent cells were transfected in 6- or 96-well plates with ErbB2 (100 nM), TrkB (100 nM), BRCA1 IRIS (200 nM) or control siRNA using Oligofectamine™ reagent (GibcoBRL Inc, USA) following the instructions of the manufacturer. Protein expression was tested by Western blot after 72 hours of siRNA transfection. Cell viability was evaluated by MTS or by manual counting after 72 hours of siRNA exposure alone or in combination with cisplatin exposure (for an additional 24 hours).

[7] = tested on: SKOV3 cells; test: Three-dimensional (3D) growth / acini formation in matrigel, SKOV3; format: cell-based, human

RRIRPRPPRLPRPRPRPLPFPRPGIGTRFLCLPQSIYRSELNVYAFGEHILQISKYS [IRIS peptide]
effect on survival [1]: decreased survival of HOSE and HOSE/IRIS cells | sensitization to cisplatin ([1]; then cisplatin): sensitized HOSE and HOSE/IRIS cells to low concentrations of cisplatin | IC50 [2]: ~5 µM | reduction in survival [3]: 50% | IC50 [4]: ~5 µM | IC50 [5]: ~5 µM | IC50 [6]: ~10 µM | decrease in ability to form invasive structures in matrigel ([7]; SKOV3 cells): > 500 fold | acini phenotype ([7]; SKOV3 in matrigel, day 10, peptide added every third day): slightly bigger/organized/round acini
